Reference: patent US11834679B2, “Method for producing cardiomyocytes” (KATAOKA CORPORATION, priority 2018, dated 2023)

Tested on: human fibroblasts
Experiment: Direct induction from human fibroblasts to cardiomyocytes (microscopic observation of morphology and pulsation)
Type: cell-based
Description: The human fibroblasts used as the material were purchased from DS Pharma Biomedical Co., Ltd. The fibroblasts are derived from human skin. The human fibroblasts were seeded in 8×10^4 portions in 35-mm dishes coated with gelatin (Cat #: 190-15805, manufactured by Wako Pure Chemical Co.) and cultured in DMEM high glucose medium (manufactured by Gibco) supplemented with 10% fetal bovine serum (Fetal bovine serum; FBS), 100 U/mL penicillin, and 100 μg/mL streptomycin for 2 days at 37° C. under 5% CO2 conditions (80-90% or more confluent). DMEM denotes Dulbecco's Modified Eagle Medium (Dulbecco's Modified Eagle Medium). The medium of dishes of the human fibroblasts described above was replaced with a medium of DMEM (High Glucose with L-Glutamine Phenol Red, and Sodium Pyruvate) (manufactured by Gibco) having 20% fetal bovine serum (FBS), 2% B27-supplement (manufactured by Gibco), 1% N2 (manufactured by Gibco), non-essential amino acids (NEAA: manufactured by Gibco), β-mercaptoethanol (manufactured by Nacalai Tesque; final concentration of 0.1 mmol/L), 2-phospho ascorbic acid (manufactured by Sigma-Aldrich; final concentration of 50 μg/mL), 100 U/mL penicillin, 100 μg/mL streptomycin, and low molecular weight compounds described below. […] This was assessed by observing cell clumps that contract spontaneously and periodically under a microscope. […]

Structure (SMILES): O=C(NOC[C@H](O)CO)c1ccc(F)c(F)c1Nc1ccc(I)cc1F [Ex. A, PD0325901]
- appearance of spontaneously contracting (myocardial) cell clumps (Tables 1-2, FIGS. 1-6, culture day 7 to 17): low in frequency
- Induction efficiency (Morphology, pulsation) (human skin fibroblasts cultured with the compound combination, grades ⊚, ◯, Δ, X not defined): Δ
